Here are results for one compound from patent publication US20200022386A1, “METHOD OF PREPARATION OF CA[…]” (PHARCON INC., priority 2018, published 2020).

In brackets after ≈: the same amount, converted by molar mass.

This data set in a line: Solubility of cannabinoids / cannabis extract in ethanol. The class given is physicochemical. Conditions: organic solvent or mixture, room temperature, ethyl alcohol (solvent named). An excerpt:
Cannabinoids have extremely low water solubility and relatively high solubility in oils and polar organic solvents such as ethanol and propylene glycol. Micro- and nanoemulsions or liposomal formulations where cannabinoids incorporated into lipid phase of the colloidal dispersion can be efficiently used for preparation of cannabis loaded products. Nevertheless, for preparation of beverages with high content of biologically active cannabis components may be complicated since solubility in the oil phase may not be high enough to provide the desired concentration of cannabinoids in the prepared beverage while keeping the product stable and palatable. Additionally, terpenes presented in extract of cannabis, visibly improve solubility of cannabinoids while pure CBD, THC or other cannabinoids have much lower solubility. […] However, since cannabis terpenes are often associated with acrid and unpleasant taste and flavor, it is preferable to use purified cannabinoids with a potency (purity) of 90-100%.
Practically all proposed SNEDS formulations of cannabinoids have oil phase consisting of food oils, mainly mono-di or triglycerides, such as medium chain triglycerides (MCT oil, coconut oil), fish oil, soy oil, olive oil, acetylated mono-and diglycerides, etc. The food oils have excellent safety profile and can provide a reasonable solubility of cannabinoids. […]

On to `C=C(C)[C@@H]1CCC(C)=C[C@H]1c1c(O)cc(CCCCC)cc1O` [CBD, Cannabidiol], for which the solubility fell in the range of 25 to 36 mg/mL (≈ 79.5 to 114 mM).
